This is an account of results in article PMC8274818 (Bioorganic & medicinal chemistry, 2019).

In brackets after ≈: the same amount, converted by molar mass. Some results are limits rather than exact numbers.

A short description of this data set: Kinetic solubility assay. The class given is physicochemical. The note with it: phosphate buffer, pH 7.4, aqueous buffer, kinetic from dmso stock.

As for `Nc1ccc(/N=N/c2ccccc2)c(N)n1` [phenazolpyridine], the solubility (kinetic) (in general, the concentration staying in solution when a stock, usually in DMSO, is diluted into the medium) at 6 h worked out at 0.0277 ± 0.00449 mg/mL (≈ 130 µM).
Turning to `CCCSc1ccc2nc(NC(=O)OC)[nH]c2c1` [Albendazole, albendazole], the solubility (kinetic) at 6 h was below 0.001 mg/mL.
